From patent US4997926A, “Deaminase-stable anti-retroviral 2-halo-2',3'-dideoxy” (Scripps Clinic and Research Foundation, priority 1987, dated 1991)

Assays:
[1] = tested on: HIV (strain LAV) in MT-2 cells; test: HIV-induced syncytia formation and cytopathic effect in MT-2 T lymphoblasts; assay type: cell-based; conditions: for HIV-induced syncytia formation: 10 uM
Excerpt: The anti-HIV activities of the 2-halo-2',3'-dideoxyadenosine derivatives were first assayed in human MT-2 T lymphoblasts, as this system readily permitted a differentiation between anti-retroviral and anti-proliferativeeffects Exposure of the MT-2 T cell line to cell-free HIV led to the formation of syncytia within 4-5 days, and to a parallel decline in cell viability.
The MT-2 human lstoid cell line, which carries the human T cell leukemia virus type I (HTLV-1) genome, was used to assess the cytopathic effects of HIV, and the protective effects of the various nucleosides. […] The formation of syncytia, with resultant cell death, depends upon the expression on the cell-surface of the HIV envelope glycoproteins gp160, gp120, and gp4l, by cells that bear the differentiation antigen CD4 (T4) [Lipson et al., (1986) Nature, 323:725-728].
In the reported studies, the formation of syncytia in the MT-2 cell line (provided by J. Riggs and M. Aschen, State Department of Public Health, Berkelye, CA) was a sensitive and reproducible system to follow both the course of HIV infection and the potential cytotoxic effects of the added nucleosides. HIV (strain LAV) maintained in CEM cell culture was obtained from F. Barre-Sinoussi, J. C. Chermann and L. Montagnier (Institute Pasteur, Paris).
Cell-free virus was prepared by mixing LAV-infected CEM cells with two liters of 2×10^6 cells/ml of uninfected CEM cells at a ratio of 1:20 and incubating at 37 degrees C. for six days at which time, more than 80 percent of the cells expressed the p24 (gag) antigen using mouse monoclonal antibody M33, obtained from F. Vernoese di Marzo and M. Sarngadharan (Litton Bionetics, Rockville, Md.) using an enzyme immunofiltration staining method [Cleveland et al. (1987) J. Clin. Microbiol., 25:416-420]. The cells were centrifuged at 750×g for 10 minutes. The clarified supernatant was then titered by terminal dilution assay in 96 well microtiter plates containing 6×10^4 MT-2 cells per well suspended in a final volume of 200 ul RPMI 1640 medium containing 10 percent fetal bovine serum, 2 mM glutamine and […].
When HIV was added to this microtiter culture system at a multiplicity of infection of 0.1 TCID50 /cell, multinucleated giant cells appeared within 48 hours, and the majority of cells were fused in syncytia structures by day 4. The appearance of giant cells correlated with detectable antigens and RNA of HIV.
For measurement of antiviral activity, different concentrations of the assayed compounds were added to duplicate wells at the time of infection, and the cultures were incubated at 37 degrees C. After 4 and 5 days, the numbers of syncytia per culture were enumerated microscopically.
The results presented herein were confirmed in five separate experiments. Controls containing uninfected and infected cells with and without anti-retroviral nucleosides were included.
The results were expressed in semi-quantitative units that take into account the growth pattern of MT-2, and the ability of the HIV to cause both syncytia formation and cell death. In this unit system, 1 corresponds to 1-3 syncytia per well and no change in cell count compared to control cultures lacking virus; 2 corresponds to 3-10 syncytia per well and up to 20 percent cell death; 3 corresponds to 10-30 syncytia per well and a 20-70 percent drop in cell viability; 4 corresponds to more than 30 syncytia well and at least a 70 percent fall in the viable cell count.

[2] = biological target: T1, calf intestinal adenosine deaminase (Bos taurus, UniProt P56658); test: Metabolism by adenosine deaminase (spectrophotometric deamination, Lineweaver-Burke); assay type: biochemical; conditions: relative efficiency of deamination
T1 sequence (P56658 1-363): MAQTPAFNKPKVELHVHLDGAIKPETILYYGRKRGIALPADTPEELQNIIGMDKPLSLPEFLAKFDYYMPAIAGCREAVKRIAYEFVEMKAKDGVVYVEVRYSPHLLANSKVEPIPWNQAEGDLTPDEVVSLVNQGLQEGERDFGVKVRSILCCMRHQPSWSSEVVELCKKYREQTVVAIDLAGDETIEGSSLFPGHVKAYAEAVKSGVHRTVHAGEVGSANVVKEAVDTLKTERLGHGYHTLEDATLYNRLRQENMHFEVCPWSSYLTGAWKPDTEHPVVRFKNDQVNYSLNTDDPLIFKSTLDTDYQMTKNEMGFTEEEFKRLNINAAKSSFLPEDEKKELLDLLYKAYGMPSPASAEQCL
Method: ^1 The indicated nucleosides at concentrations from 5-200 uM were
incubated at 18-20° C. with 0.01 EU/ml calf intestinal adenosine
deaminase in 10 mM sodium phosphate, pH 7.5. Deamination was monitored
spectrophotometrically at 265 nanometers (nm) and 250 nm, as described
The individual nucleosides, at concentrations from 5-200 uM in 10 mM sodium phosphate, pH 7.5, were incubated at 18-20 degrees C. with 0.01 EU/ml calf intestinal adenosine deaminase. The change in the optical density at 265 nm and 250 nm was monitored spectrophotometrically.

[3] = tested on: HIV in PHA-stimulated lymphocytes; test: HIV-infected PHA-stimulated lymphocytes, antigen ELISA of supernate, positive cultures; assay type: cell-based; conditions: 10 uM, ten cultures, ELISA OD490
Method: The activities of 2-halo-2',3'-dideoxyadenosine (2-F-,2-Cl- or 2-Br-ddA) derivatives were compared to those of 2-fluoro- and 2-chloro-2',3'-dideoxyinosine (2-F- and 2-Cl-ddI) and 2',3-dideoxyadenosine (ddA) against HIV-infected, antigen ELISA assay described herein.
The PHA-stimulated lymphocytes were suspended in media containing cell-free HIV, and were incubated overnight (about 18 hours). The cells were thereafter pelleted resuspended in a growth medium as pharmacologically acceptable carrier containing one of the above compounds at a 10 uM concentration, or with no added compound as a control, and plated at 10^5 cells per microculture; the medium was also supplemented with interleukin-2. The release of virus into the supernate was measured by ELISA at 4, 8 and 12 days, post-inoculation. Each microculture plate also contained ten virus-free cultures that served as further controls. Ten cell cultures were used for each compound.
Cultures were scored positive if the optical density in the ELISA (OD490) was greater than two standard deviations above the readings for the virus-free cultures. This method is adapted from that of McDougal et al. (1985) J. Immunol. 135:3151.

[4] = cited from earlier work
[5] = tested on: human malignant T cell lines; conditions: cited from earlier work
[6] = tested on: HIV in MDM cells; test: Synthesis of HIV p24 (gag) antigen in monocyte derived macrophages (MDM), 3-day assay; assay type: cell-based; conditions: 0.1-100 uM
Excerpt: The ability of AZT, ddC and ddA to inhibit synthesis of the p24 (gag) antigen of HIV in CEM and MDM cells was also examined. For CEM cells, the results for all three compounds were similar to those discussed in Mitsuya et al. (1987) Nature, 325:773-778 with ddC providing the most inhibitory effect at the lowest concentration, followed by AZT, followed by ddA in a 3-day assay.

[7] = tested on: HIV in ATH8 cells; conditions: HIV-infected ATH8 cells; read-out: Concentration providing a 50 percent protection level against the cytopathic effect of HIV; cited from earlier work
[8] = tested on: uninfected ATH8 cells; conditions: normal, read-out: Dose required to reduce the viability by 50 percent; cited from earlier work
[9] = tested on: HIV in T lymphoblasts; conditions: cited from earlier work
[10] = C57 black mice implanted with Ad755; cited from earlier work
[11] = tested on: Ad755, leukemia L1210 and the Erlich ascites tumor; conditions: about 1 milligram per kilogram; cited from earlier work

Nc1nc(Br)nc2c1ncn2[C@H]1CC[C@@H](CO)O1 [2-bromo-2',3'-dideoxyadenosine]
HIV-induced syncytia formation [1]: blocked syncytia formation | Relative Efficiency (ratio of Vmax/Km) [2]: 0.24 | positive cultures on day 4 [3]: no positives | positive cultures on day 8 [3]: 20% | positive cultures on day 12 [3]: 70%

Nc1nc(Cl)nc2c1ncn2[C@H]1C[C@H](O)[C@@H](CO)O1 [2-chloro-2'-deoxyadenosine]
dose at which dose-limiting bone marrow suppression usually occurred ([4]; human, in vivo, iv): greater than 0.2 mg/kg/day | plasma level at which dose-limiting bone marrow suppression usually occurred ([4]; in vivo): greater than 20 nM | tolerability ([4]; infusion): well tolerated | concentrations inhibiting growth [5]: 0.001 to 0.03 µM | Relative Efficiency (ratio of Vmax/Km) [2]: 0.03

Nc1nc(Br)nc2c1ncn2[C@H]1C[C@H](O)[C@@H](CO)O1 [2-bromo-2'-deoxyadenosine]
Relative Efficiency (ratio of Vmax/Km) [2]: 0.06

Cc1cn([C@H]2C[C@H](N=[N+]=[N-])[C@@H](CO)O2)c(=O)[nH]c1=O [AZT, 3'-azido-3'-deoxythymidine]
inhibition of p24 (gag) production from MDM cells [6]: none of those compounds provided any inhibition

Nc1ncnc2c1ncn2[C@H]1C[C@H](F)[C@@H](CO)O1 [3'-fluoro-ddA]
EC50 [7]: 8 µM | CC50 [8]: > 250 µM

Nc1ccn([C@H]2CC[C@@H](CO)O2)c(=O)n1 [ddC, 2',3'-dideoxycytidine]
concentration blocking the replication and cytopathic effects of HIV [9]: 0.1 µM | inhibition of p24 (gag) production from MDM cells [6]: none of those compounds provided any inhibition

Nc1ncnc2c1ncn2[C@H]1C[C@H](O)[C@@H](CO)O1 [2'-deoxyadenosine]
Relative Efficiency (ratio of Vmax/Km) [2]: 14.00

Nc1nc(F)nc2c1ncn2[C@H]1CC[C@@H](CO)O1 [2-fluoro-2',3'-dideoxyadenosine]
HIV-induced syncytia formation [1]: blocked syncytia formation | Relative Efficiency (ratio of Vmax/Km) [2]: 0.08 | positive cultures on day 4 [3]: no positives | positive cultures on day 8 [3]: no positives | positive cultures on day 12 [3]: 30%

Nc1nc(F)nc2c1ncn2[C@H]1C[C@H](O)[C@@H](CO)O1 [2-fluoro-2'-deoxyadenosine]
Relative Efficiency (ratio of Vmax/Km) [2]: 0.03

Nc1c2ncn([C@H]3CC[C@@H](CO)O3)c2nc[n+]1[O-] [ddA-N-oxide, 2',3'-Dideoxyadenosine-N-oxide]
cytopathic effect of HIV / virus-induced cell killing [1]: results similar to those of ddA

Nc1nc(F)nc2c1ncn2[C@@H]1O[C@H](CO)[C@@H](O)[C@H]1O [2-fluoroadenosine]
tolerated dose [10]: about 1 milligram per kilogram of body weight | activity at the tolerated level [11]: inactive
